Publication PMC5472784, “Pyrazinamide and derivatives block ethylene biosynthesis by inhibiting ACC oxidase” (Nature Communications, 2017)
Like-named read-outs stand apart in the source and are kept apart here. Blank lines part the entries; values can stand above or below the molecule they belong to.

Experiments:
[1] = molecular target: the other four ACO proteins in Arabidopsis (AtACO1, AtACO3, AtACO4 and AtACO5); assay: ACO kinetic analysis, span over the other four ACO proteins; format: biochemical, Arabidopsis thaliana; conditions: span over AtACO1, 3, 4, 5
Method: (§1) The activity was performed following previously published protocol. The reaction mixture contains 50 mM MOPS, pH 7.4, 10% glycerol (v/v), 5 mM ascorbic acid, 20 mM NaHCO3, 0.02 mM FeSO4, 1 mM DTT, and different amounts of ACC and PZA/POA as indicated. The reaction was initiated by the addition of 5 μg ACO protein and immediately sealed with a rubber stopper. After incubation at 30 °C for 30 min with shaking, 100 μl of gas product was withdrawn by syringe from the headspace of the vial and injected into the GC-FID. The area of the ethylene peak was integrated with Agilent Chemstation and results were analysed using the program GraphPad Prism (version 5.01; GraphPad Software Inc., San Diego, CA, USA). The initial velocities were plotted against starting ACC concentrations in a double-reciprocal manner and the kinetic parameters were deduced.

[2] = test system: Arabidopsis etiolated seedlings (Col-0, eto1-2, ctr1-1, ein2-5); assay: Ethylene response phenotype of 3-day-old etiolated seedlings (hypocotyl and root length, root hairs, root cells); format: in vivo, Arabidopsis thaliana; conditions: 3-day-old etiolated eto1-2 seedlings, MS medium with compound (50 μM shown)
[3] = test system: ethylene production of Arabidopsis seedlings; assay: Measurement of ethylene production of seedlings (GC-FID); format: in vivo, Arabidopsis thaliana; conditions: for ethylene production in Arabidopsis seedlings: Supplementary Fig. 10
Method: Ethylene production was determined as follows: 30 3-day-old etiolated or 5-day-old green seedlings of Col-0, eto1-2 or other mutants were selected randomly and sealed in a 30 ml vial containing 3 ml liquid MS medium supplemented with indicated treatments. The vial was sealed with a rubber stopper for 24 h at 22 °C prior to ethylene sampling. A 250 μl sample of the headspace gas was withdrawn using a gas-tight syringe from each chamber through the septum stopper, and injected into a gas chromatograph (Agilent 6890NGC, Agilent Technologies, USA) that was equipped with a HP-PLOTQ column (40 m × 530 μm × 40 μm) and a flame ionization detector (FID)[44]. Separations were carried out at 60 °C using N2 as the carrier gas. The area of the ethylene peak was integrated with Agilent Chemstation and results were expressed as the average relative ethylene production (%) of each treatment.

[4] = test system: dioxygenase for auxin oxidation (DAO); assay: Isothermal titration calorimetry; format: binding, Arabidopsis thaliana; conditions: ITC
Method: (§2) ITC experiments were performed using a MicroCal iTC200 (GE Healthcare) at 25 °C. Small molecules and proteins were in the same buffer containing 25 mM Bis–Tris (pH 6.0), 150 mM NaCl, 0.1 mM ZnCl2 (or 0.2 mM FeSO4 for POA and AtACO2). The concentration of small molecules in the syringe was 1 mM, and the concentration of proteins in the cell was 90 μM. Data were analysed with a one-site model using Origin 7.0 (OriginLab).

[5] = molecular target: T1, anthocyanidin synthase (ANS) (Arabidopsis thaliana, UniProt Q96323); assay: Isothermal titration calorimetry; format: binding; conditions: ITC
T1 construct: GST; made in house
T1 sequence (Q96323 whole entry): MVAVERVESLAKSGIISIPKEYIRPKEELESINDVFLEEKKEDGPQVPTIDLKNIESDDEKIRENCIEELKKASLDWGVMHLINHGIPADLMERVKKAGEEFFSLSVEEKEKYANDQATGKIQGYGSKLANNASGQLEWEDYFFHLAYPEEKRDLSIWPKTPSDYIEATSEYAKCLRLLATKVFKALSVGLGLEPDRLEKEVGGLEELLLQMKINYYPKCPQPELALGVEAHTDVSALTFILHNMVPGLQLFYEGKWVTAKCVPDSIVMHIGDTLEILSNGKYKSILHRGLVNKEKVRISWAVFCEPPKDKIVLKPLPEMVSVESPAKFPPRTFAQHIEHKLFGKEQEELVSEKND
Method: as §2

[6] = molecular target: T2, gibberellin C2 oxidase 2 (GA2OX2) (Arabidopsis thaliana, UniProt Q9XFR9); assay: Isothermal titration calorimetry; format: binding; conditions: ITC
T2 construct: GST; made in house
T2 sequence (Q9XFR9 1-341): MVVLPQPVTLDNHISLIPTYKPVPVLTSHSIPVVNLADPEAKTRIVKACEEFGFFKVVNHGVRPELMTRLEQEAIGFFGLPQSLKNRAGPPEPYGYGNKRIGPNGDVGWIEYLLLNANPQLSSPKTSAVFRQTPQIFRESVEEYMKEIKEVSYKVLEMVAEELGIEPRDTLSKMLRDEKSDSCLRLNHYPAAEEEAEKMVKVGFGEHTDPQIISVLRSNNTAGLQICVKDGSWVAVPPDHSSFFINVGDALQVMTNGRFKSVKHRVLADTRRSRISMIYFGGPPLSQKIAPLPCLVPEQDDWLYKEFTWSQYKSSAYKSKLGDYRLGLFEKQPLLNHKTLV
Method: as §2

AtACO2 [7] = molecular target: T3, AtACO2 (Arabidopsis thaliana, UniProt Q41931); assay: Isothermal titration calorimetry; format: binding; conditions: ITC, 25 °C, read-out: dissociation constant (KD), AtACO2
T3 sequence (Q41931 1-303): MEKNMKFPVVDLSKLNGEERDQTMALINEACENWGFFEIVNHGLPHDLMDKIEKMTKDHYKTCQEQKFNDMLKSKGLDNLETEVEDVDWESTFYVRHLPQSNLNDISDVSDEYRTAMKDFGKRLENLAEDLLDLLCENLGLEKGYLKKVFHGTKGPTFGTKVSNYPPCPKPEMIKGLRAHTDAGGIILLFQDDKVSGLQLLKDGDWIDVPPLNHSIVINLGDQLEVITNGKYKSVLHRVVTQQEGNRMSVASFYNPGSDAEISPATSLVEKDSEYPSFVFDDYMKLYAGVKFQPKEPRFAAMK
Method: as §2

AtACO2 [8] = molecular target: T3, AtACO2; assay: Fragmentation (stability) of purified AtACO2; conditions: 200 μM POA, 30 °C
Method: Purified AtACO2 was incubated with or without 200 μM POA at 30 °C in a buffer containing 50 mM MOPS, pH 7.2, 10% glycerol (v/v), 5 mM ascorbic acid, 20 mM NaHCO3, 0.02 mM FeSO4, 1 mM ACC and 1 mM DTT. At the indicated time point, the reaction was terminated by the addition of SDS-PAGE loading buffer followed by boiling. Fragmentation of AtACO2 was visualized on a SDS-PAGE gel.

AtACO2 [9] = molecular target: T3, AtACO2; assay: ACO enzymatic activity assay and kinetic analysis (ethylene by GC-FID); format: biochemical
AtACO4 = AtACO4 (Arabidopsis thaliana, UniProt Q06588); assay: ACO enzymatic activity assay, kinetic analysis; format: biochemical; conditions: varying ACC, 200 μM POA, unit inferred
AtACO4, sequence (Q06588 whole entry): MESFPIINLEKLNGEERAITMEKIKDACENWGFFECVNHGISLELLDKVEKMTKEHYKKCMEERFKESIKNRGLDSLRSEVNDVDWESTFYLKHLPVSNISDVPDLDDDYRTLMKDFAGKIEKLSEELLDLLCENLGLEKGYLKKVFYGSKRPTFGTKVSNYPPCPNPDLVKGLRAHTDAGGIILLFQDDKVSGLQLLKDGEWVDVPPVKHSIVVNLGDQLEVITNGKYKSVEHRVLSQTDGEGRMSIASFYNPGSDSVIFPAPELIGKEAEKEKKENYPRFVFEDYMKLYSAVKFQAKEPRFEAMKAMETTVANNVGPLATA
Method: as §1

AtACO1 = molecular target: T4, AtACO1 (Arabidopsis thaliana, UniProt Q9ZUN4); assay: ACO enzymatic activity assay, kinetic analysis; format: biochemical; conditions: varying ACC, 200 μM POA, unit inferred
T4 sequence (Q9ZUN4 1-310): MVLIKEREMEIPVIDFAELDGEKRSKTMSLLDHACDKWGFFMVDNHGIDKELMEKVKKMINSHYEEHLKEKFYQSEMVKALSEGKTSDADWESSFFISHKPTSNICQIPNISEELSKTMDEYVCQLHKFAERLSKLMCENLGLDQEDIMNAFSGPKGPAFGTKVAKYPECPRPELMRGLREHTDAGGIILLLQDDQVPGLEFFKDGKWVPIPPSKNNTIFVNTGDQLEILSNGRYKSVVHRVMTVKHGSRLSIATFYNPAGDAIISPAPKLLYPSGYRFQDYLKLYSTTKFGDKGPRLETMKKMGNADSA
Method: as §1

AtACO5 = molecular target: T5, AtACO5 (Arabidopsis thaliana, UniProt Q0WPW4); assay: ACO enzymatic activity assay, kinetic analysis; format: biochemical; conditions: varying ACC, 200 μM POA, unit inferred
T5 sequence (Q0WPW4 1-307): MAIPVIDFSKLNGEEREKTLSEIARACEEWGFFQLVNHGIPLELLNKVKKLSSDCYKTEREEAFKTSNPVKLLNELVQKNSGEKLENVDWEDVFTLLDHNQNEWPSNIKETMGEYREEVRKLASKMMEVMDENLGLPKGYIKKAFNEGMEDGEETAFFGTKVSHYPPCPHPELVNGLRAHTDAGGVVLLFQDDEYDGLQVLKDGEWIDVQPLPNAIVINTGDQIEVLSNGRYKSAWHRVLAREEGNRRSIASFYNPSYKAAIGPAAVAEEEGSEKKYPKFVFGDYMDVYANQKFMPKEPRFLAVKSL
Method: as §1

AtACO3 = AtACO3 (Arabidopsis thaliana, UniProt O65378); assay: ACO enzymatic activity assay, kinetic analysis; format: biochemical; conditions: varying ACC, 200 μM POA, unit inferred
AtACO3, sequence (O65378 whole entry): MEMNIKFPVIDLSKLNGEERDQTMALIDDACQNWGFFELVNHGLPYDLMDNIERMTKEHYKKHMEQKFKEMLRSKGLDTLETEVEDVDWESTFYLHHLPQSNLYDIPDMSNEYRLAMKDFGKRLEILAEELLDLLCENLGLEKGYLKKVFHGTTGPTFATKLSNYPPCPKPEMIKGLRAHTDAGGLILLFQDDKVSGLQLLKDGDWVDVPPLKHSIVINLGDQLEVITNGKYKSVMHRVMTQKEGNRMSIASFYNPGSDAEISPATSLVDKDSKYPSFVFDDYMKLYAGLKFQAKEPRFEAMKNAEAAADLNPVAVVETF
Method: as §1

[10] = test system: Arabidopsis PSB-D suspension cultured cells; assay: Ethylene production of suspension cultured cells; format: cell-based, Arabidopsis thaliana

Compound: O=C(O)c1cnccn1 [POA, pyrazinecarboxylic acid]
- Ki [1]: 187 to 722 µM
- short-root and short-hypocotyl phenotype of eto1-2 [2]: specifically suppressed
- ACC-induced ethylene production of Col-0 seedlings ([3]; 100 μM ACC, 500 μM compound, 24 h): inhibited
- interaction with DAO [4]: no interaction
- interaction with ANS [5]: no interaction
- interaction with GA2OX2 [6]: no interaction
- Kd (AtACO2 [7]; in the presence of Fe2+): 14.8 µM
- Kd (AtACO2 [7]; in the presence of Zn2+): 10.2 µM
- stability of purified AtACO2 protein (AtACO2 [8]): did not obviously change
- Ki (AtACO2 [9]; Lineweaver–Burk plots, varying ACC, 100, 200 or 300 μM POA, error represents s.d., read-out: Ki, AtACO2 inhibition): 89.8 ± 18.3 µM
- mode of inhibition of ACO (AtACO2 [9]; double-reciprocal plots): competitive inhibitor
- IC50 (AtACO2 [9]; recombinant AtACO2, ethylene by GC-FID, read-out: IC50, inhibition of AtACO2 activity): 72.1 ± 1.11 µM
- Ki (AtACO4): 195 ± 73.3 µM
- Ki (AtACO1): 317 ± 90.4 µM
- Ki (AtACO5): 722 ± 536 µM
- Ki (AtACO3): 187 ± 54.5 µM

Compound: NC(=O)c1ccccn1 [2-picolinamide]
- ethylene production in suspension cultured cells [10]: remarkably inhibited
- ethylene production in Arabidopsis seedlings [3]: remarkably inhibited

- inhibition effect on AtACO2 compared with POA (AtACO2 [9]; 200 μM): much weaker inhibition effect than POA
Compound: CC(C)(N)C(=O)O [AIB, α-aminoisobutyric acid, reference compound]

- Kd (AtACO2 [7]; in the presence of Zn2+): 2.8 µM
- inhibition effect on AtACO2 compared with POA (AtACO2 [9]; 200 μM): stronger than that of POA
- relative AtACO2 activity treated with POA derivatives (AtACO2 [9]; 200 μM): directly inhibited
Compound: O=C(O)c1ccccn1 [2-PA, 2-picolinic acid]
- ethylene production in suspension cultured cells [10]: remarkably inhibited
- ethylene production in Arabidopsis seedlings [3]: remarkably inhibited
